Entries after “also recorded” stand apart in the source; their conditions may differ.
Experiments:
[1] = Hematological profile of L1210-inoculated mice
Source text: C57B mice were inoculated with L1210 lymphoblastic leukemia cells at an inoculum that causes leukemia in 100% of animals.

[2] = test system: vitelline capillaries; test: Chick embryo vitelline capillary regression assay; format: in vivo
Procedure: Using the chick embryo vitelline capillaries assay, compounds were tested for their ability to induce capillary regression. Each compound was applied in 0.1 ml of 15% Ficol 400 and PBS onto the embryo, and vascular regression was assessed after 60 minutes.
The 3-day chick embryo consists of an embryonic disc from which numerous vessels emerge and return, forming a "FIG. 8"-shaped structure--the embryo in the center with vascular loops extending outward over both poles. […] Following a lag period of around 15 minutes, the constriction of continuity between capillary and secondary vessels, generally on the "venous" side, was observed. Continued pulsatile blood flow progressed, resulting in a "swelling" of the blind tube, followed by a pinching off of the remaining connection and formation of an enclosed vascular sac resembling a "blood island." This process progressed until only the largest vessels remained intact.

[3] = test system: Xenopus tadpole, stage 59-60; test: Tadpole assay; format: in vivo, Xenopus laevis; conditions: 10 μg/ml; for pharmacological response in tadpole (words): stage 59-60
Source text: For example, substances that destroy all of the animal's epithelium, both adult and embryonic, could be regarded as toxic.
The volume of liquid is sufficient for the animal to swim freely and drink from the solution. […] If the volume of liquid is not sufficient to permit oral intake, the effects that are observed would result from absorption through the surface epithelium.
In another embodiment of this assay, a solution of a compound in water can be injected directly into the abdomen of the animal using standard techniques.
After an amount of time, typically about 60 minutes, the occlusion of blood flow through capillaries in the tadpole's tail are observed under an inverted microscope at a magnification of roughly 100×.
In the assay, each of the steroids was dissolved in 100 ml of distilled water at a concentration of 10 μg/ml. Stage 59-60 Xenopus tadpoles were introduced and evaluated by light microscopy and gross observation 1 hour later.

[4] = test system: B16 melanoma; test: Suppression of growth of B16 melanoma in C57B mice; format: in vivo, mouse; conditions: subcutaneous; FIG. 6
Procedure: The growth of B16 melanoma in C57B mice is dependent upon neovascularization.
Using the growth of B16 melanoma cells in C57B mice, a recognized model for the evaluation of inhibitors of angiogenesis on the growth of cancers, the effects of subcutaneous, intraperitoneal and oral administration of squalamine were evaluated.

[5] = test system: NHE; test: Comparison of compound 319 with squalamine
Source text: Moreover, other aminosterols have shown anti-angiogenic activity. Compounds were subjected to a various assays, including the chick embryo capillary regression assay, the tadpole assay, the assay for inhibition of endothelial cord formation, and the assay for direct inhibition of NHE, as described above, to determine their utilities. As evident from the above data, correlation among the results from the chick, tadpole and in vitro inhibition of endothelial cell cord formation assays is excellent.
Through the application of these assays, compound 319 emerged as an attractive alternative to squalamine. […] Further properties of compound 319 are discussed below.

[6] = test system: human melanoma; test: Effect on growth of human melanoma (method of Baker et al.); format: cell-based; conditions: FIG. 17A
[7] = target: T1, rabbit NHE3 (Oryctolagus cuniculus, UniProt P26432); format: cell-based; conditions: 10 μg/ml, acid preloaded; FIG. 10
T1 construct: BCECF internal pH recovery
T1 sequence (P26432 30-832): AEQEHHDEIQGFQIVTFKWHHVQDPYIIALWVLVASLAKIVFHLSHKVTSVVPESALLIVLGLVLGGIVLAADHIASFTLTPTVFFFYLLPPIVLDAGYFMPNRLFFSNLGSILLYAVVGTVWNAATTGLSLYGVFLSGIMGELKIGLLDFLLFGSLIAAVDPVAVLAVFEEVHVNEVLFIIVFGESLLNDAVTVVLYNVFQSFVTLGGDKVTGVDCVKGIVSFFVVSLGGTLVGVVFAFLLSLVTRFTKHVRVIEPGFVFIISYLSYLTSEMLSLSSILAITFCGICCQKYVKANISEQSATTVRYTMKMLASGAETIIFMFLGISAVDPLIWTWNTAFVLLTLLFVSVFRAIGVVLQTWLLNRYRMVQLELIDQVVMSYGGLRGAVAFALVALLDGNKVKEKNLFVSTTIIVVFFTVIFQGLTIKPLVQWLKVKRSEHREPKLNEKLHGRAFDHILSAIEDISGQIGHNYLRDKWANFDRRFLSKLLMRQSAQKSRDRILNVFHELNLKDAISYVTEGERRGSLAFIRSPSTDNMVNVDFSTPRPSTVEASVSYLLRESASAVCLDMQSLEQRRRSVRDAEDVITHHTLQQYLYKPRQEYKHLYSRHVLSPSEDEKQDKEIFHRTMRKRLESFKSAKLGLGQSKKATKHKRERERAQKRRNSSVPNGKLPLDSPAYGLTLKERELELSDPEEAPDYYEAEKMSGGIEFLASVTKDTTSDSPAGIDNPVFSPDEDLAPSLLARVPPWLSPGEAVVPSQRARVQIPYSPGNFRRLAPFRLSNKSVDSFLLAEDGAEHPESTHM

[8] = test system: PHA-stimulated human lymphocytes; test: Inhibition of mitogen (PHA)-stimulated growth of human T-cells; format: cell-based
Source text: Results are tabulated below.

[9] = test system: Human colon carcinoma HT29; test: Growth inhibition in vitro (Table 7); format: cell-based; conditions: 10 μg/ml
Source text: (§1) As set forth in Table 7 below, all malignant tumors evaluated in tissue culture, endothelial cells and vascular smooth muscle cells were sensitive to inhibition. Thus, compound 1436 has application in the control of growth factor dependent proliferation of many types of tissue.

[10] = test system: Human colon carcinoma SW948; test: Growth inhibition in vitro (Table 7); format: cell-based; conditions: 10 μg/ml
Source text: as §1

[11] = test system: Human coronary artery smooth muscle cells; test: Growth inhibition in vitro (Table 7); format: cell-based; conditions: 10 μg/ml
Source text: as §1

[12] = test system: Human melanoma WM 1617; test: Growth inhibition in vitro (Table 7); format: cell-based; conditions: 10 μg/ml
Source text: as §1

[13] = test system: Human microvascular endothelial cells; test: Growth inhibition in vitro (Table 7); format: cell-based; conditions: 10 μg/ml
Source text: as §1

[14] = test system: Lewis lung carcinoma; test: Growth inhibition in vitro (Table 7); format: cell-based; conditions: 10 μg/ml
Source text: as §1

[15] = test system: Murine B16 melanoma; test: Growth inhibition in vitro (Table 7); format: cell-based; conditions: 10 μg/ml
Source text: as §1

[16] = test system: Murine L1210 leukemia; test: Growth inhibition in vitro (Table 7); format: cell-based; conditions: 10 μg/ml
Source text: as §1

[17] = test system: bovine pulmonary endothelial cells; test: Growth inhibition in vitro (Table 7); format: cell-based; conditions: 10 μg/ml
Source text: as §1

[18] = test system: human umbilical venous endothelial cells; test: Growth inhibition in vitro (Table 7); format: cell-based; conditions: 10 μg/ml
Source text: as §1

[19] = test system: Human ovarian carcinoma SKOV3; test: Growth inhibition in vitro (Table 7); format: cell-based; conditions: 10 μg/ml
Procedure: as §1
Using the assay described above, the anticancer effects of compound 1437 against several cancer lines was assessed.

[20] = test system: B16 melanoma; test: Synergistic inhibition of tumor growth, B16 melanoma model; format: in vivo, mouse
Procedure: Based on the idea that tumor growth involves both the clonal expansion of a malignant cell along with the development of a supporting vascular supply, a combination of compound 1436 with squalamine was tested to determine whether it would achieve a synergistic effect on solid tumor growth. This concept was evaluated in the B16 melanoma model.
Animals were implanted with B16 melanoma followed by treatment with compound 1436 or 1256 administered in a combined schedule or separately. […] Thus, a combination of these two compounds achieves a therapeutic benefit in tumors dependent on neovascularization that may prevent metastatic spread.

[21] = Effect on fasting blood glucose in mice; format: in vivo, mouse; conditions: i.v.
Procedure: To study the effect of steroid administrator or the NHE responsible for secretion of insulin, several of the aminosterols from shark liver were administered to fasting mice. Male CD-1 mice were assigned to one of four treatment groups. Whole blood glucose was tested using glucometer (Lifescan Glucometer II and One Touch test strips). Statistical analysis was via one-way analysis of variance (ANOVA) followed by subsequent Bonferonni's t-test.

[22] = test system: human coronary artery smooth muscle; test: Proliferation of human coronary artery smooth muscle in vitro; format: cell-based
Source text: Aminosterols of the invention may also have utility in inhibiting the growth factor mediated proliferation of smooth muscle within the artery. Following coronary angioplasty, reocclusion commonly occurs, secondary to reparative proliferation of the vascular smooth muscle within the wall of the surgically manipulated blood vessel. This process generally takes place over the course of 7-10 days. To evaluate whether an agent could prevent the growth factor mediated proliferation of smooth muscle within the artery, compound 1436 was evaluated in vitro for its effect on the proliferation of human coronary artery smooth muscle. Results for compound 1436 are shown in FIG. 13, and those for squalamine are shown in FIG. 14, with FIG. 15 being a composite logarithmic plot.

[23] = Effect on growth and weight gain of C57B mice; format: in vivo, mouse
Procedure: Animals were dosed QTD (i.p.) starting on Day 1. […] Animals receiving 5 mg/kg QTD experienced about a 50% reduction in growth, compared to untreated controls, while animals receiving 1 mg/kg QTD were affected by about 10%. […] They appeared very much like hypophysectamized animals might appear.

[24] = Effect on arterial resistance in the rat after i.v. administration; format: in vivo
Procedure: A 200-g rat was catheterized in the right carotid artery, and the compound was introduced over a ten-second period to a total dosage of 5 mg/kg. Within 30 seconds, the mean arterial pressure had fallen from about 100 mm Hg to about 70 mm Hg, with a marked reduction in pulse pressure from about 40 mm to about 10 mm. […] If cardiac output was basically unaffected, reduction in blood pressure would have resulted principally from a reduction in system resistance.
At that time, 40 μg of noradrenaline was introduced.

[25] = test system: heart of a juvenile Xenopus laevis frog; test: Persistence of beating of isolated frog heart (ischemia); conditions: 10 μg/ml, adrenaline 50 μg/ml, room temperature; about one hour without compound
Procedure: To determine if compound 1436 has such utility, the following experiment was performed. The heart of a juvenile Xenopus laevis frog was dissected from the living animal. The heart was placed into a Petri dish containing Krebs-Ringer buffer with adrenaline 50 μg/ml, and examined with the naked eye. At room temperature, the heart continued beating in a coordinated fashion (atrial beat followed by ventricular beat) for about one hour. In the presence of 10 μg/ml of compound 1436, spontaneous beating persisted up to 24 hours.

[26] = test system: L1210 lymphoblastic leukemia; test: Survival of mice bearing L1210 leukemia
[27] = Chemical stability; format: physicochemical

N.N.[Cl][Pt][Cl] [Cisplatin]
hematological profile [1]: profound anemia by day 28

C[C@H](CCC(=O)O)[C@H]1CC[C@H]2[C@@H]3CC[C@H]4C[C@@H](NCCCNCCCCN)CC[C@]4(C)[C@H]3CC[C@]12C [Compound 319]
activity on vitelline capillaries [2]: especially active
pharmacological response in tadpole (words) [3]: common vascular occlusive effect
control of B16 melanoma [4]: control of B16 in C57B mice to an extent almost comparable to squalamine
potency as an NHE inhibitor compared with squalamine [5]: superior to squalamine

CC(C)CCC[C@@H](C)[C@H]1CC[C@H]2[C@@H]3CC[C@H]4C[C@@H](NCCCNCCCCNCCCN)CC[C@]4(C)[C@H]3CC[C@]12C [Compound 353]
activity on vitelline capillaries [2]: no effect on the chick embryo capillary bed
pharmacological response in tadpole (words) [3]: effects like those produced by compound 1436
time course of effect on growth of melanoma [6]: most pronounced over 48 hours, with less of an effect noted within the first 12 hours of incubation

CC(C)[C@@H](CC[C@@H](C)[C@H]1CC[C@H]2[C@@H]3[C@H](O)C[C@H]4C[C@@H](NCCCNCCCCNCCCN)CC[C@]4(C)[C@H]3CC[C@]12C)OS(=O)(=O)O [Compound 1436]
inhibition of rabbit NHE3 [7]: found to inhibit rabbit NHE3
activity on vitelline capillaries [2]: causes vitelline capillary regression with about the same potency as squalamine
tissues or functions not affected in tadpole [3]: No effects are observed on epithelial cell integrity, vascular flow, erythrocyte volume, tissue integrity, muscle fiber striation, or GI tract activity
pharmacological response in tadpole (words) [3]: Gradual reduction in overall activity. Heart beat remained strong, suggesting nervous system depression. Melanocytes over head and tail began to swell, first exhibiting visibly distinct nuclei, followed by rupture into fragments
pharmacological response in tadpole (words) ([3]; listed as compound 1436): common vascular occlusive effect; also recorded: dramatic disruption of melanocytes over its head, trunk, and tail, along with depression of its nervous system
inhibition of blast transformation [8]: inhibited blast transformation most potently
inhibition in vitro [9]: INHIBITED
inhibition in vitro [10]: INHIBITED
inhibition in vitro [11]: INHIBITED
inhibition in vitro [12]: INHIBITED
inhibition in vitro [13]: INHIBITED
inhibition in vitro [14]: INHIBITED
inhibition in vitro [15]: INHIBITED
inhibition in vitro [16]: INHIBITED
inhibition in vitro [17]: INHIBITED
inhibition in vitro [18]: INHIBITED
inhibition in vitro [19]: INHIBITED
effect compared with combination ([20]; compound 1436 alone in a tolerable schedule): Neither administration of squalamine at 15 mg/kg/day nor compound 1436 alone in a tolerable schedule could achieve this effect
impact on tumor volume ([20]; compound 1436 alone, 10 mg/kg/every 3 days, FIG. 12): no significant impact on tumor volume
blood glucose effect [21]: caused hyperglycemia in mice
suppression of growth in vitro ([22]; FIG. 15): suppress in vitro the growth of human coronary artery smooth muscle
viability at quiescent concentration ([22]; about 11 μg/ml): without loss of viability
reduction in growth ([23]; 5 mg/kg QTD i.p., compared to untreated controls): ~50%
reduction in growth ([23]; 10 mg/kg QTD i.p.): almost completely inhibited
apparent health of treated animals ([23]; i.p.): all were active, normally proportioned, not-cachectic, and in excellent apparent clinical health
reversibility ([24]; 40 μg noradrenaline at 30 minutes): readily reversible
pulse pressure after dose ([24]; 5 mg/kg i.v., within 30 seconds, from about 40 mm): about 10 mm
mean arterial pressure after dose ([24]; 5 mg/kg i.v., within 30 seconds, from about 100 mm Hg): about 70 mm Hg
persistence of pressure effect ([24]; followed for 30 minutes): without significant change
persistence of spontaneous beating [25]: up to 24 hours
survival ([26]; highest dose, 10 mg/kg every 3 days i.p., FIG. 11): significant prolongation of life
toxicity in leukemic mice ([26]; mouse, in vivo): without unfavorable toxicity

CC(CCC(=O)C(C)(C)OS(=O)(=O)O)[C@H]1CCC2C3C(CC[C@@]21C)[C@@]1(C)CC[C@H](NCCCNCCCCN)C[C@@H]1C[C@H]3O (some centres unmarked) [FX1A]
stability in water [27]: undergo conversion to another molecule (FX 1B) rapidly in water

Reference: patent US5994336A, “Method of inhibiting proliferation of cells by administering an aminosterol compound” (priority 1995, dated 1999)
